Assay results taken from patent publication US20050080122A1, “Anti-viral compounds” (priority 2002, published 2005).

What was measured:
Rhinovirus = test: Antiviral assay: virus yield reduction measured by plaque assay in infected cells; type: cell-based
Source text: (§1) Representative viruses of the Rhinovirus and Enterovirus genera were chosen for study: Rhinovirus 2 (RV2), Rhinovirus 14 (RV14), Coxsackievirus […] (CVB3) and Echovirus 11 (EV11). Each virus is propogated in two different cell lines as follows: RV2 and RV14 in HEL and HeLa cells, CVB3 in BS-C-1 and HeLa (human cervical adenocarcinoma) cells, EV11 in BS-C-1 (African green monkey kidney, primary) and HEL (human embryonic lung, primary) cells. Propogation of virus strains in two different cell lines is performed as different cell types may utilize different ion transport pathways.
(§2) Antiviral assays are determined as follows. Monolayers of HeLa T cells (human cervical adenocarcinoma) in 12-well plates are infected with 0.01 plaque forming units per cell of Rhinovirus 2 in minimum essential medium with Earle's salts (MEM) supplemented with 1% v/v fetal bovine serum (FBS) or mock-infected with medium for 1 hour. […] Cells are further incubated for 70 hours at 34° C., until extensive cell death is observed in the no drug control. Cells plus culture supernatants are freeze-thawed and virus titre in each sample is determined by plaque assay.

HeLa cells = test: Cytotoxicity on uninfected cells, Alamar Blue metabolic activity; settings: uninfected HeLa T cells, 70 hours at 34° C.
Enterovirus = test: Antiviral assay: virus yield reduction measured by plaque assay in infected cells; type: cell-based
Source text: as §1, §2

CCN(c1nc(N)c(C(=O)NC(=N)N)nc1Cl)C(C)C [EIPA, 5-(N-ethyl-N-isopropyl)amiloride]
effectiveness against Rhinovirus (Rhinovirus): particularly effective
toxicity to HeLa cells compared to the inhibition of virus production (HeLa cells): far less toxic

N=C(N)NC(=O)c1nc(Cl)c(N)nc1N [Amiloride]
effectiveness against Enterovirus (Enterovirus): particularly effective

COc1ccc(CCN(C)CCCC(C#N)(c2ccc(OC)c(OC)c2)C(C)C)cc1OC (centres unmarked) [Verapamil]
effectiveness against Rhinovirus (Rhinovirus): particularly effective

N=C(NCc1ccccc1)NC(=O)c1nc(Cl)c(N)nc1N [Benzamil]
effectiveness against Enterovirus (Enterovirus): particularly effective
